Key:
[1] = In vivo Assay (II): half life of the prodrug after oral administration in dog; conditions: whole blood, dog (n=3), orally administered at a dose equivalent to 2 mg/kg of the parent ethanol compound, LC/MS, read-out: half life (T1/2)
Description: (§1) 2-((4-(Benzo[d]thiazol-5-ylamino)-6-(tert-butylsulfonyl)quinazolin-7-yl)oxy)ethyl dihydrogen phosphate was orally administered at a dose equivalent to 2 mg/kg of 2-((4-(benzo[d]thiazol-5-ylamino)-6-(tert-butylsulfonyl)quinazolin-7-yl)oxy)ethanol to a series of test animals. Rats (n=2) and dogs (n=3) were administered 2-((4-(benzo[d]thiazol-5-ylamino)-6-(tert-butylsulfonyl)quinazolin-7-yl)oxy)ethyl dihydrogen phosphate, whereas minipigs (male Göttingen minipigs (n=3)) were administered 2-((4-(benzo[d]thiazol-5-ylamino)-6-(tert-butylsulfonyl)quinazolin-7-yl)oxy)ethyl disodium phosphate. Blood samples were taken from each test animal at intervals between 0 to 24 hrs (25 hrs in dog) after administration. The concentration 2-((4-(benzo[d]thiazol-5-ylamino)-6-(tert-butylsulfonyl)quinazolin-7-yl)oxy)ethanol in each sample was determined by LC/MS. The average blood concentrations of 2-((4-(benzo[d]thiazol-5-ylamino)-6-(tert-butylsulfonyl)quinazolin-7-yl)oxy)ethanol in each test species, following oral administration of 2-((4-(benzo[d]thiazol-5-ylamino)-6-(tert-butylsulfonyl)quinazolin-7-yl)oxy)ethyl dihydrogen phosphate or disodium phosphate are shown in FIG. 4.

[2] = In vivo Assay (II): half life of the prodrug after oral administration in rat; conditions: whole blood, rat (n=2), orally administered at a dose equivalent to 2 mg/kg of the parent ethanol compound, LC/MS, read-out: half life (T1/2)
Description: as §1

[3] = In vivo Assay (II): half life of the prodrug after oral administration in minipig; design: species or system male Göttingen minipigs; conditions: male, Göttingen, whole blood, minipig (n=3), orally administered at a dose equivalent to 2 mg/kg of the parent ethanol compound, LC/MS, read-out: half life (T1/2)
Description: as §1

Row | half-life [1] | half-life [2] | half-life [3] | SMILES
1 | 5 min | 15 min | – | CC(C)(C)S(=O)(=O)c1cc2c(Nc3ccc4scnc4c3)ncnc2cc1OCCOP(=O)(O)O [Example 1, 2-((4-(Benzo[d]thiazol-5-ylamino)-6-(tert-butylsulfonyl)quinazolin-7-yl)oxy)ethyl dihydrogen phosphate]
2 | – | – | 26 min | CC(C)(C)S(=O)(=O)c1cc2c(Nc3ccc4scnc4c3)ncnc2cc1OCCOP(=O)(O)O [Example 2, 2-((4-(Benzo[d]thiazol-5-ylamino)-6-(tert-butylsulfonyl)quinazolin-7-yl)oxy)ethyl disodium phosphate]

Source: US9586953B2, “Prodrugs of amino quinazoline kinase inhibitor” (GlaxoSmithKline Intellectual Property Development Limited, priority 2012, dated 2017)
